This is an account of results in patent US5244883A, “Nonapeptide bombesin antagonists” (The Administrators of the Tulane Educational Fund, priority 1990, dated 1993).

In this experiment the target is T1, GRP receptors on Swiss 3T3 cells (Mus musculus, UniProt P21729).
T1 construct: conducted in 24-well tissue culture plates (GIBCO) using Swiss 3T3 cells; endogenous in cells; host or cells: Murine Swiss 3T3 fibroblasts (intact confluent, quiescent cells)
Kind of experiment: Receptor binding assay: displacement of 125I-GRP(14-27) on Swiss 3T3 cells. Particulars: for Ka: association constant, N.D.=NO DISPLACEMENT; for Ka / Kd: 0.2 nM 125I-GRP(14-27), Swiss 3T3 cells, 37° C. 30 min; for IC50: calculated by Cheng and Prussoff equation IC50=Kc(1+L/Kh), 0.2 nM radioligand. More on the design: species or system Murine. The method, then: (A) Receptor Binding Assay
Binding of ^125 I-GRP(14-27) and displacement by bombesin antagonists were conducted in 24-well tissue culture plates (GIBCO) using Swiss 3T3 cells. Murine Swiss 3T3 fibroblasts were maintained by weekly passage in DMEM containing 10% FCBS and antimycotics. Cultures were incubated in 5% CO2 in air at 37° C. The wells were seeded with 10^5 cells/well (viability >95%), grown to confluence and quiescency. The binding procedure was conducted 7 days after seeding. The cells were washed 2 times with 0.5 ml of binding buffer (Dulbecco's modified Eagle's medium containing […] (pH 7.4), 0.2% BSA and 100 mcg/ml bacitracin). The cells were then incubated with 0.2 nM ^125 I-GRP (14-27) in the presence or absence of different concentrations of antagonists (6×10^-11 -6×10^-6 M, total volume 0.4 ml).
According to Zachary and Rozengurt (1985) and Layton et al., (1988), binding of ^125 I-GRP at 37° C. reached a maximum value at 30 min and decreased afterwards; so, the cells were incubated at 37° C. for 30 min. After that, the cells were washed 2 times with ice-cold (4° C.) binding buffer and 2 times with the ice-cold phosphate-buffered saline (PBS,mM): NaCl 138, KCl 2.8, Na2 HPO4 8, KH2 PO4 1.45, CaCl2 0.91, MgCl2 0.49. Washed cultures were extracted in 0.5 ml of 0.5M NaOH and transferred to tubes for counting. The wells were washed once with 0.5 ml distilled water (sterile), and the washing were added to the appropriate tubes. Then the radio-activity of the samples was counted in an automatic gamma counter (Micromedic System, Inc., Huntsville, Ala.).
The Ligand - PC computerized curve fitting program of Munson and Rodbard was used to determine the types of receptor binding, dissociation constant (Kd), association constant (Ka), the maximal binding capacity of receptors (Bmax) and half-maximal inhibition (IC50).
IC50 values represent concentrations of antagonists causing half-maximal inhibition of 0.2 nM GRP(14-27) stimulated growth. Dissociation constant and maximal binding capacity of ^125 I-GRP (14-27) in our experiments were 1.32 nm and 0.769 pm/mg protein, respectively, which were similar to those reported for ^125 I-GRP and ^125 I-Tyr^4 -bombesin. Binding characteristics of GRP receptors on 3T3 cells in these experiments agree well with values obtained for bombesin binding to pancreatic acinar (Jensen et al., 1978) and pituitary cells (Westendorf and Schonbrunn, 1983).
IC50 is the concentration of unlabelled ligand that displaced half the specific radioligand binding. It is calculated according to the equation of Cheng and Prussoff (1973): IC50 =Kc (1+L/Kh), where Kc and Kh are the dissociation constants of unlabelled (cold) and labelled (hot) ligand respectively, and L is the concentration of radioligand used.

Where a SMILES comes first, the peptide text is derived from it. [ ]: non-standard residue; d: D form. The star is where a group is joined. His(τ-Bzl) = N[C@@H](Cc1cn(Cc2ccccc2)cn1)C(=O)O; X2 = CC(C)C[C@@H](CN[C@@H](CC(C)C)C(N)=O)N*; dTpi = O=C(O)[C@H]1Cc2c([nH]c3ccccc23)CN1

T1 sequence (P21729 whole entry): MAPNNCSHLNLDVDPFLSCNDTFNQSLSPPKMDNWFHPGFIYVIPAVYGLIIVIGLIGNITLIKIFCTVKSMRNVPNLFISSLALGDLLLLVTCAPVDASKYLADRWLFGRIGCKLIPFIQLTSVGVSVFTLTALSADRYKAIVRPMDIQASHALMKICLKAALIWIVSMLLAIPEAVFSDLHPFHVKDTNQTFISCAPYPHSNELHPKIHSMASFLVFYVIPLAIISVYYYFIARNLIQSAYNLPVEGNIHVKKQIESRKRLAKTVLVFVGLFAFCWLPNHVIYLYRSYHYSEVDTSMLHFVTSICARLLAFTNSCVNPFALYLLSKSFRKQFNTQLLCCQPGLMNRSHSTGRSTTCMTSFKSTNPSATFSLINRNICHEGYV

On to `CSCC[C@H](NC(=O)[C@H](CC(C)C)NC(=O)[C@H](Cc1c[nH]cn1)NC(=O)CNC(=O)[C@@H](NC(=O)[C@H](C)NC(=O)[C@H](Cc1c[nH]c2ccccc12)NC(=O)[C@H](Cc1c[nH]cn1)NC(=O)[C@H](CC(N)=O)NC(=O)CNC(=O)[C@H](CCCNC(=N)N)NC(=O)[C@@H]1CCCN1C(=O)[C@H](Cc1ccc(O)cc1)NC(=O)[C@@H](N)CCSC)C(C)C)C(N)=O` [125I-GRP (14-27), reference compound], for which the “maximal binding capacity of 125I-GRP(14-27)” value (radioligand on Swiss 3T3 cells) is reported as 0.769 pm/mg protein.

Turning to `CSCC[C@H](NC(=O)[C@H](CC(C)C)NC(=O)[C@H](Cc1c[nH]cn1)NC(=O)CNC(=O)[C@@H](NC(=O)[C@H](C)NC(=O)[C@H](Cc1c[nH]c2ccccc12)NC(=O)[C@H](Cc1c[nH]cn1)NC(=O)[C@H](CC(N)=O)NC(=O)CNC(=O)[C@H](CCCNC(=N)N)NC(=O)[C@@H]1CCCN1C(=O)[C@H](Cc1ccc(O)cc1)NC(=O)[C@@H](N)CCSC)C(C)C)C(N)=O` [GRP(14-27), reference compound], the Ka stood at 0.758 ± 0.23 nM⁻¹. In the case of `CC(C)C[C@@H](CN[C@@H](CC(C)C)C(N)=O)NC(=O)[C@H](Cc1c[nH]cn1)NC(=O)CNC(=O)[C@@H](NC(=O)[C@H](C)NC(=O)[C@H](Cc1c[nH]c2ccccc12)NC(=O)[C@H](CCC(N)=O)NC(=O)[C@H](N)Cc1c[nH]c2ccccc12)C(C)C` [Peptide 2, D--Trp--Gln--Trp--Ala--Val--Gly--His--Leu-psi-Leu--NH2], the Kd was 10.6 nM and the IC50 is 12.2 nM. The corresponding values for `CC(C)C[C@@H](CN[C@@H](CC(C)C)C(N)=O)NC(=O)[C@H](Cc1c[nH]cn1)NC(=O)CNC(=O)[C@@H](NC(=O)[C@H](C)NC(=O)[C@H](Cc1c[nH]c2ccccc12)NC(=O)[C@H](CCC(N)=O)NC(=O)[C@H]1Cc2c([nH]c3ccccc23)CN1)C(C)C` [Peptide 5, D--Tpi--Gln--Trp--Ala--Val--Gly--His--Leu-psi-Leu--NH2] are 8 nM and 9.2 nM.

The compound `CC(C)C[C@@H](CN[C@@H](CC(C)C)C(N)=O)NC(=O)[C@H](Cc1c[nH]cn1)NC(=O)CNC(=O)[C@@H](NC(=O)[C@H](C)NC(=O)[C@H](Cc1c[nH]c2ccccc12)NC(=O)[C@H](Cc1cn(Cc2ccccc2)cn1)NC(=O)[C@H]1Cc2c([nH]c3ccccc23)CN1)C(C)C` [Peptide 8, D--Tpi--His(Bz)--Trp--Ala--Val--Gly--His--Leu-psi-Leu--NH2] (H-[dTpi][His(τ-Bzl)]WAVGH-X2) displayed a Ka of 0.014 nM⁻¹. With `CC(C)C[C@@H](CN[C@@H](Cc1ccccc1)C(N)=O)NC(=O)[C@H](Cc1c[nH]cn1)NC(=O)CNC(=O)[C@@H](NC(=O)[C@H](C)NC(=O)[C@H](Cc1c[nH]c2ccccc12)NC(=O)[C@H](CCC(N)=O)NC(=O)[C@H](N)Cc1c[nH]c2ccccc12)C(C)C` [Peptide 10, D--Trp--Gln--Trp--Ala--Val--Gly--His--Leu-psi-Phe--NH2], the Kd was determined as 1 nM and the IC50 was 1.15 nM. The corresponding values for `CNC(=O)CC[C@H](NC(=O)[C@H](N)Cc1c[nH]c2ccccc12)C(=O)N[C@@H](Cc1c[nH]c2ccccc12)C(=O)N[C@@H](C)C(=O)N[C@H](C(=O)NCC(=O)N[C@@H](Cc1c[nH]cn1)C(=O)N[C@H](CN[C@@H](Cc1ccccc1)C(N)=O)CC(C)C)C(C)C` [Peptide 11, D--Trp--Glu(MeNH)--Trp--Ala--Val--Gly--His--Leu-psi-Phe--NH2] are 5 nM and 5.75 nM. In the case of `CC(C)C[C@@H](CN[C@@H](Cc1ccccc1)C(N)=O)NC(=O)[C@H](Cc1c[nH]cn1)NC(=O)CNC(=O)[C@@H](NC(=O)[C@H](C)NC(=O)[C@H](Cc1c[nH]c2ccccc12)NC(=O)[C@H](CCC(N)=O)NC(=O)[C@H]1Cc2c([nH]c3ccccc23)CN1)C(C)C` [Peptide 12, D--Tpi--Gln--Trp--Ala--Val--Gly--His--Leu-psi-Phe--NH2] (HELM PEPTIDE1{[O=C([C@H]1Cc2c([nH]c3ccccc23)CN1)[*:2]].Q.W.A.V.G.H.[CC(C)C[C@@H](CN[C@@H](Cc1ccccc1)C(N)=O)N[*:1]]}$$$$V2.0), the Ka turned out to be 0.014 nM⁻¹.

Regarding `CC(C)C[C@@H](CN1Cc2[nH]c3ccccc3c2C[C@H]1C(N)=O)NC(=O)[C@H](Cc1c[nH]cn1)NC(=O)CNC(=O)[C@@H](NC(=O)[C@H](C)NC(=O)[C@H](Cc1c[nH]c2ccccc12)NC(=O)[C@H](CCC(N)=O)NC(=O)[C@H](N)Cc1ccccc1)C(C)C` [Peptide 17, D--Phe--Gln--Trp--Ala--Val--Gly--His--Leu-psi-Tpi--NH2], the Kd amounted to 1 nM and the IC50 is 1.2 nM. Taken in the same sequence, the figures for `CC(C)C[C@@H](CN1Cc2[nH]c3ccccc3c2C[C@H]1C(N)=O)NC(=O)[C@H](Cc1c[nH]cn1)NC(=O)CNC(=O)[C@@H](NC(=O)[C@H](C)NC(=O)[C@H](Cc1c[nH]c2ccccc12)NC(=O)[C@H](CCC(N)=O)NC(=O)[C@H](N)Cc1c[nH]c2ccccc12)C(C)C` [Peptide 18, D--Trp--Gln--Trp--Ala--Val--Gly--His--Leu-psi-Tpi--NH2] were 4 nM and 4.6 nM. Taken in the same sequence, the figures for `CC(C)C[C@@H](CN1Cc2[nH]c3ccccc3c2C[C@H]1C(N)=O)NC(=O)[C@H](Cc1c[nH]cn1)NC(=O)CNC(=O)[C@@H](NC(=O)[C@H](C)NC(=O)[C@H](Cc1c[nH]c2ccccc12)NC(=O)[C@H](CCC(N)=O)NC(=O)[C@@H]1Cc2c([nH]c3ccccc23)CN1)C(C)C` [Peptide 22, Tpi--Gln--Trp--Ala--Val--Gly--His--Leu-psi-Tpi--NH2] were 0.9 nM and 1.14 nM.

In the case of `CC(C)C[C@@H](CN1Cc2[nH]c3ccccc3c2C[C@H]1C(N)=O)NC(=O)[C@H](Cc1c[nH]cn1)NC(=O)CNC(=O)[C@@H](NC(=O)[C@H](C)NC(=O)[C@H](Cc1c[nH]c2ccccc12)NC(=O)[C@H](CCC(N)=O)NC(=O)[C@H]1Cc2c([nH]c3ccccc23)CN1)C(C)C` [Peptide 26, D--Tpi--Gln--Trp--Ala--Val--Gly--His--Leu-psi-Tpi--NH2], the affinity, expressed as Kd, was 22 nM and the IC50 was 25.3 nM. As to `COc1ccc(CCC(=O)N[C@@H](CCC(N)=O)C(=O)N[C@@H](Cc2c[nH]c3ccccc23)C(=O)N[C@@H](C)C(=O)N[C@H](C(=O)NCC(=O)N[C@@H](Cc2c[nH]cn2)C(=O)N[C@H](CN[C@@H](Cc2c[nH]c3ccccc23)C(N)=O)CC(C)C)C(C)C)cc1` [Peptide 27, Mpp--Gln--Trp--Ala--Val--Gly--His--Leu-psi-Trp--NH2] (HELM PEPTIDE1{[COc1ccc(CCC(=O)[*:2])cc1].Q.W.A.V.G.H.[CC(C)C[C@@H](CN[C@@H](Cc1c[nH]c2ccccc12)C(N)=O)N[*:1]]}$$$$V2.0), the Ka stood at 0.013 nM⁻¹. Take `CC(C)C[C@@H](CN[C@@H](Cc1c[nH]c2ccccc12)C(N)=O)NC(=O)[C@H](Cc1c[nH]cn1)NC(=O)CNC(=O)[C@@H](NC(=O)[C@H](C)NC(=O)[C@H](Cc1c[nH]c2ccccc12)NC(=O)[C@H](CCC(N)=O)NC(=O)[C@H](N)Cc1ccccc1)C(C)C` [Peptide 28, D--Phe--Gln--Trp--Ala--Val--Gly--His--Leu-psi-Trp--NH2]: the Kd amounted to 8 nM and the IC50 is 9.16 nM. Regarding `CC(C)C[C@@H](CN[C@@H](Cc1c[nH]c2ccccc12)C(N)=O)NC(=O)[C@H](Cc1c[nH]cn1)NC(=O)CNC(=O)[C@@H](NC(=O)[C@H](C)NC(=O)[C@H](Cc1c[nH]c2ccccc12)NC(=O)[C@H](CCC(N)=O)NC(=O)[C@H](N)Cc1c[nH]c2ccccc12)C(C)C` [Peptide 29, D--Trp--Gln--Trp--Ala--Val--Gly--His--Leu-psi-Trp--NH2], the affinity, expressed as Kd, was 526 nM and the IC50 is 605 nM. Taken in the same sequence, the figures for `CC(C)C[C@@H](CN[C@@H](Cc1c[nH]c2ccccc12)C(N)=O)NC(=O)[C@H](Cc1c[nH]cn1)NC(=O)CNC(=O)[C@@H](NC(=O)[C@H](C)NC(=O)[C@H](Cc1c[nH]c2ccccc12)NC(=O)[C@H](CCC(N)=O)NC(=O)[C@H]1Cc2c([nH]c3ccccc23)CN1)C(C)C` [Peptide 30, D--Tpi--Gln--Trp--Ala--Val--Gly--His--Leu-psi-Trp--NH2] were 4 nM and 5.15 nM.
